Experiment [1] concerns the target Dual specificity mitogen-activated protein kinase kinase 1 (Homo sapiens, UniProt Q02750). Particulars: at 10 µM.
Experiment [2] addresses T1, Ephrin type-A receptor 1 (Homo sapiens) (UniProt P21709).
T1 sequence (whole entry): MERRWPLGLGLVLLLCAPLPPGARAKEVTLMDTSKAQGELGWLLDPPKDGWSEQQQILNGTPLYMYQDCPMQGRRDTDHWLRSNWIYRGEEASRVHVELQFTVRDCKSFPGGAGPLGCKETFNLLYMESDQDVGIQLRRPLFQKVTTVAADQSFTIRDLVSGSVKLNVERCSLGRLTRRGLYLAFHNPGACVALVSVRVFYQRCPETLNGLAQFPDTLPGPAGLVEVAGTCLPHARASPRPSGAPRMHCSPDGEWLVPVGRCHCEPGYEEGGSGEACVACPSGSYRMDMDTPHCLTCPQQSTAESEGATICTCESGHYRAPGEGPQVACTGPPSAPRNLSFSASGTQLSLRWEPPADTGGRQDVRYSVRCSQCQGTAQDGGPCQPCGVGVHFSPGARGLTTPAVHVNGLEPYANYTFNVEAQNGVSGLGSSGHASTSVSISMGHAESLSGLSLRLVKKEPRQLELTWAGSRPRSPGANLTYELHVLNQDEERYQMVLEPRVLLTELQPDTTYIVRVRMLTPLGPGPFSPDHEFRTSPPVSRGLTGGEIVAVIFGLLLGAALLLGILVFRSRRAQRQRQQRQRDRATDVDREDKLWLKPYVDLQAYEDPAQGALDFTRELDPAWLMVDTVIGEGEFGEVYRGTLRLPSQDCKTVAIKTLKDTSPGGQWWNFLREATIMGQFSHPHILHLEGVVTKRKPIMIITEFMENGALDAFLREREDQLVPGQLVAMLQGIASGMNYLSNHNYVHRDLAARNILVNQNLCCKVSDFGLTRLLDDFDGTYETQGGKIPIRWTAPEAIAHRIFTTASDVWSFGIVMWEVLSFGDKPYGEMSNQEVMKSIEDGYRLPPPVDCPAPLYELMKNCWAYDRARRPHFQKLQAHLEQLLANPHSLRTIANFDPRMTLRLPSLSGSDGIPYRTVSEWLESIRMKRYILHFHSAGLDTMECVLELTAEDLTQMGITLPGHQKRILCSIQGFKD
The conditions noted are these: at 10 µM.

Experiment [3] addresses Wee1-like protein kinase (Homo sapiens) (UniProt P30291). The experiment in a line: Selectivity interaction (KinomeScan (DiscoverX)) EUB0000666a WEE1. Particulars: at 10 µM.
The target in experiment [4] is Histone-lysine N-methyltransferase KMT5C (Homo sapiens) (UniProt Q86Y97). Put plainly: Selectivity interaction (Transferase panel (protein, RNA, and DNA methyltransferases. and EP300 (acetyltransferase))) EUB0000270b SUV420H2.
Histone-lysine N-methyltransferase KMT5C (Homo sapiens), sequence (Q86Y97 whole entry, looked up): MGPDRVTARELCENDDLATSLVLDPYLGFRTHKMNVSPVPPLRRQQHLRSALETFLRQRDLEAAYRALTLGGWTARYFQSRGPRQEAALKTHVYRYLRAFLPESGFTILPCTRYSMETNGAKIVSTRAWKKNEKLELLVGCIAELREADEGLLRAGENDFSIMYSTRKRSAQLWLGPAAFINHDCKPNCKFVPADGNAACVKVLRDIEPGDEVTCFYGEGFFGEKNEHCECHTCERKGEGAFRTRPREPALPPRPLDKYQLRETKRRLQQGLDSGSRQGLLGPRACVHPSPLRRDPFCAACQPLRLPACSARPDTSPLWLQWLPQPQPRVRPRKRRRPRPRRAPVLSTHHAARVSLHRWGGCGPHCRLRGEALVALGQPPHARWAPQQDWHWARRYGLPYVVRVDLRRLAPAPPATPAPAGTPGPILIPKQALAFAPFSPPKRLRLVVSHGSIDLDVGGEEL
Experiment [5] deals with T2, Mitogen-activated protein kinase kinase kinase 13 (Homo sapiens) (UniProt O43283).
T2 sequence (whole entry): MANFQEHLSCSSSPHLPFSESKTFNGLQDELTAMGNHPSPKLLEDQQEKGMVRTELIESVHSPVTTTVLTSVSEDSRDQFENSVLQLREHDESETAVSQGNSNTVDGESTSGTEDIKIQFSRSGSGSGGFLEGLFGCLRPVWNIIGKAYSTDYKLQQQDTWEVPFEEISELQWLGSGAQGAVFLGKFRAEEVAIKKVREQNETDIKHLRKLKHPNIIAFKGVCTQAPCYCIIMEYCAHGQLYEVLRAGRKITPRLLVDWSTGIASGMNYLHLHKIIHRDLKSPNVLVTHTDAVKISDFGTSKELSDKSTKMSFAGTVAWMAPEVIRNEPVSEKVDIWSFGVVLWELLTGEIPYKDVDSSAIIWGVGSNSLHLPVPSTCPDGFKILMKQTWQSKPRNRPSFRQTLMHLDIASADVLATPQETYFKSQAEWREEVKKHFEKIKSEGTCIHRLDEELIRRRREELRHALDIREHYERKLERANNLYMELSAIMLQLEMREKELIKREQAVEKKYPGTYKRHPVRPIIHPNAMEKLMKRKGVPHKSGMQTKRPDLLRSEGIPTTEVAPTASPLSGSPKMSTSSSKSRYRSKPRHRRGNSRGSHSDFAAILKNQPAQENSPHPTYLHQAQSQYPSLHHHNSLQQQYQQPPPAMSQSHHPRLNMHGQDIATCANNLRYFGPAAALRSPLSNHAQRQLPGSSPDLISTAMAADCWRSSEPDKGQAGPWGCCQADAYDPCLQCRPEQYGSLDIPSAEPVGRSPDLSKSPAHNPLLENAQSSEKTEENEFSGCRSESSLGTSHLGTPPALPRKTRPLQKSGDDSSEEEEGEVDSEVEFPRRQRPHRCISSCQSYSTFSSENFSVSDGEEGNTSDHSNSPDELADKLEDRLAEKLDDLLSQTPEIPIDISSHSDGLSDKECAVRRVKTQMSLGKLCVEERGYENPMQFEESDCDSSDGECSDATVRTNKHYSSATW
Put plainly: Selectivity interaction (KinomeScan (DiscoverX)) EUB0001079a MAP3K13. The conditions noted are these: at 1 µM.

Experiment [6] has as its target Tyrosine-protein kinase receptor UFO (Homo sapiens) (UniProt P30530). Put plainly: Selectivity interaction (KinomeScan (DiscoverX)) EUB0000229b AXL. The conditions noted are these: at 10 µM.
Experiment [7] has as its target T3, Serine/threonine-protein kinase 17A (Homo sapiens) (UniProt Q9UEE5).
T3 sequence (whole entry): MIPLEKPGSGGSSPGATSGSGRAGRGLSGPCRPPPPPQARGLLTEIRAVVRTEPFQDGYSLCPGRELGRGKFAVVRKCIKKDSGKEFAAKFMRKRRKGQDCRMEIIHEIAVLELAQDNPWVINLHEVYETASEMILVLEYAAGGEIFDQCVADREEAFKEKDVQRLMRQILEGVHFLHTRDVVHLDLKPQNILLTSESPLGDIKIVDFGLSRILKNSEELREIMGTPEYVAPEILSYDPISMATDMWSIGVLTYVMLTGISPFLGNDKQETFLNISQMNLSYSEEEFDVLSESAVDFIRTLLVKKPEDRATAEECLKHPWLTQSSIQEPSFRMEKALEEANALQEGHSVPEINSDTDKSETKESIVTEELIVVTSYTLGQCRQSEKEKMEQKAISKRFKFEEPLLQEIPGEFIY
Put plainly: Selectivity interaction (KinomeScan (DiscoverX)) EUB0000229b STK17A. The conditions noted are these: at 10 µM.

Experiment [8] deals with Mitogen-activated protein kinase kinase kinase 9 (Homo sapiens) (UniProt P80192). The experiment in a line: Selectivity interaction (Kinase panel (KiNativ target engagement assay in Jurkat cells)) EUB0001635a MAP3K9. Type of experiment: cell-based. The conditions noted are these: Selectivity number of off-targets 0.0, Selectivity number of targets 233.0, Source Knowledge https://www.sciencedirect.com/science/article/pii/S2451945619300674?via%3Dihub, at 1 µM.
Mitogen-activated protein kinase kinase kinase 9 (Homo sapiens), sequence (P80192 whole entry, looked up): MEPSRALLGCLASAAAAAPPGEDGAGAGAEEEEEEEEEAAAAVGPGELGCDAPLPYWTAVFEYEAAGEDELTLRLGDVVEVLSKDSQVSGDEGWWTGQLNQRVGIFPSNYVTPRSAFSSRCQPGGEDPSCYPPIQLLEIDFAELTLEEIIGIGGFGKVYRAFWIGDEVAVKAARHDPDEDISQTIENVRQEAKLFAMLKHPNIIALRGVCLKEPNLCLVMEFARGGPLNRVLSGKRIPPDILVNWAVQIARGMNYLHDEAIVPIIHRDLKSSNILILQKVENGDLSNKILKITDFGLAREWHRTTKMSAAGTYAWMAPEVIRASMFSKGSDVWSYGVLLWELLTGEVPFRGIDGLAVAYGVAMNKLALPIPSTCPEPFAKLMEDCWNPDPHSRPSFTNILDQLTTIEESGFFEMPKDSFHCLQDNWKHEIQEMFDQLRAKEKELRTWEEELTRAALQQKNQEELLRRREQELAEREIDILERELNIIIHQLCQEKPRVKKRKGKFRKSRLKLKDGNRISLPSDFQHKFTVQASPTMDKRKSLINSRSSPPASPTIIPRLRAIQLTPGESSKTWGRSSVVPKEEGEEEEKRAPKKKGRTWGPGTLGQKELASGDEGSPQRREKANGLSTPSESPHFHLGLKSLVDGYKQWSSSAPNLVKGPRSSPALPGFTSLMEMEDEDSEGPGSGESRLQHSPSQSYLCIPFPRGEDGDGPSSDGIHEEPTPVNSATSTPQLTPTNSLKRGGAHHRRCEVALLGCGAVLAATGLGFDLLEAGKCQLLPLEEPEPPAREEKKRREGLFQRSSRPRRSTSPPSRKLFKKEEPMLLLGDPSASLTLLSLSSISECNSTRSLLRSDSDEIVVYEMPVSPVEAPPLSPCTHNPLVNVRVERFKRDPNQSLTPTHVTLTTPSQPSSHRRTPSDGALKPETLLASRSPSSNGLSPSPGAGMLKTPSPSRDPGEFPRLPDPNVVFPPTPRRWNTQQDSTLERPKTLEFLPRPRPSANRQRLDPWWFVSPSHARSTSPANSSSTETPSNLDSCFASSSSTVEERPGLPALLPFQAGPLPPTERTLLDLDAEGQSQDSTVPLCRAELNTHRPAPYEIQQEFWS

Tyrosine-protein kinase receptor UFO (Homo sapiens), sequence (P30530 whole entry): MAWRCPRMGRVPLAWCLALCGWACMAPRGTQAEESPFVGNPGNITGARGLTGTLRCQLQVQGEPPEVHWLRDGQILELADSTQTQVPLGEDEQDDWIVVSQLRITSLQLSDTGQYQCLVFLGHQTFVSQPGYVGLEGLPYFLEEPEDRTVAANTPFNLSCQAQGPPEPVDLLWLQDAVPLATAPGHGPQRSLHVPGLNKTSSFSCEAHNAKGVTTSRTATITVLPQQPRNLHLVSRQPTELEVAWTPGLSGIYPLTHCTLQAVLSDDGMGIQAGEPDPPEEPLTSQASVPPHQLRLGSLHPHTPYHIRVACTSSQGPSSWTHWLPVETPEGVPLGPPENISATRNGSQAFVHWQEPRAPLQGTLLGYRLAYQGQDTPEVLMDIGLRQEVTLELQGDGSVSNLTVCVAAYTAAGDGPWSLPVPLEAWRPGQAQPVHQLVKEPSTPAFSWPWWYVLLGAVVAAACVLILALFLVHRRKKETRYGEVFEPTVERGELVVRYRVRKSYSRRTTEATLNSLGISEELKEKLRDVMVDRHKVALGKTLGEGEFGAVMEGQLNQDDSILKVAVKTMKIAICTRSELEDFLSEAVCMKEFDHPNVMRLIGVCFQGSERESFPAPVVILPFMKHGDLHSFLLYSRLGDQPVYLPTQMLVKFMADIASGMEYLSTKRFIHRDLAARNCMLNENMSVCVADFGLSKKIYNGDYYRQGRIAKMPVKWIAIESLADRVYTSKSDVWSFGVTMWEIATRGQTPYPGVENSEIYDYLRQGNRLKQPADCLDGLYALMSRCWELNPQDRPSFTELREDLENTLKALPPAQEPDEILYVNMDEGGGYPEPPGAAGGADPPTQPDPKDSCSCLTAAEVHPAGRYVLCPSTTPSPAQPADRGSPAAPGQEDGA
Wee1-like protein kinase (Homo sapiens), sequence (P30291 whole entry, looked up): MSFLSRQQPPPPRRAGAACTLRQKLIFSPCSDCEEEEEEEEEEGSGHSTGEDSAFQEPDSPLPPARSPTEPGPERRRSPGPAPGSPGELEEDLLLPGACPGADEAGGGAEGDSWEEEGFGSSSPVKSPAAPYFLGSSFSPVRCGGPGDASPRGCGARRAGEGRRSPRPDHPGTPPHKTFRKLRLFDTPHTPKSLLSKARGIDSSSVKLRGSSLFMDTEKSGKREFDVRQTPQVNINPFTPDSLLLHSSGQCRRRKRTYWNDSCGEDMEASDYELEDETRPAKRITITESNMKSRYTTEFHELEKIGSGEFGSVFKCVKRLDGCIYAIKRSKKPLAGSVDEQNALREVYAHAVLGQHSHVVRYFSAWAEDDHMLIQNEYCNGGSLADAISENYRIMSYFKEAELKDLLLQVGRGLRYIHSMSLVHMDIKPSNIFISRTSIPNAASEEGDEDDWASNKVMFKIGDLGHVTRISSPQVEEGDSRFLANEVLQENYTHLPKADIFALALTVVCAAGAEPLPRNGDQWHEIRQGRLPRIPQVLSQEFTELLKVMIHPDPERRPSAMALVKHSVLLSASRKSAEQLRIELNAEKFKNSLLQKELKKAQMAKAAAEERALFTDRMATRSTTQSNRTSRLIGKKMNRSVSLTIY
Dual specificity mitogen-activated protein kinase kinase 1, sequence (Q02750 whole entry): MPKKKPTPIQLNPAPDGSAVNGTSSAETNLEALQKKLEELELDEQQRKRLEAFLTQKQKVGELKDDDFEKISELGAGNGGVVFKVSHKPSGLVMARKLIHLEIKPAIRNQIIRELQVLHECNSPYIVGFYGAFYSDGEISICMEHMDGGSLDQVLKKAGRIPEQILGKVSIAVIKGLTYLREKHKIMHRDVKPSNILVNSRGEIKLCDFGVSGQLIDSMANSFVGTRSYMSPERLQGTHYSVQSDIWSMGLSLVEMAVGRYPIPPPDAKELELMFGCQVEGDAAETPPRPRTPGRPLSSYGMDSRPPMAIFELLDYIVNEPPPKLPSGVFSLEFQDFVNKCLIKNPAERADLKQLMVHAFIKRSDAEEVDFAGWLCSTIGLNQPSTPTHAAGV

On to `CCN(CC)CCCCNc1ncc2cc(-c3cc(OC)cc(OC)c3)c(NC(=O)NC(C)(C)C)nc2n1`, for which the % of control in experiment [1] and in experiment [2] was 100% in each case.

Turning to `O=C(NOC[C@H](O)CO)c1ccc(F)c(F)c1Nc1ccc(I)cc1F`, in experiment [3], the % of control worked out at 67%.

In the case of `Cc1cc(CN)cc(C)c1-c1ncn(C)c1-c1cncn1C`, the % activity is more than 90% in experiment [4] (at 1 µM) and more than 80% in experiment [4] (at 10 µM).

`Nc1cnc(N2CCc3cc(S(=O)(=O)Nc4c(F)cc(Cl)cc4F)cc(N4CCCC4=O)c32)nc1` [TP-020n] registered a % of control in experiment [5] of 100%. Regarding `COc1cc(N(C)c2ccnc3ccc(C(F)(F)F)cc23)cc(OC)c1OC`, the % binding amounted to 86% in experiment [6] and 92% in experiment [7]. In the case of `C=CC(=O)Nc1ccc(C(=O)Nc2[nH]nc3c2CN(C(=O)N[C@H](CN(C)C)c2ccccc2)C3(C)C)cc1`, the % of engagement in experiment [8] is 0.3%.

For the origin of these results see ChEMBL document CHEMBL5465560, “Selectivity Literature for EUbOPEN Chemogenomic Library” (2024).
